The values below come from patent publication US11203574B2 (BioCryst Pharmaceuticals, Inc., priority 2014, dated 2021).

In general, Ki refers to the equilibrium dissociation constant of an inhibitor or competing ligand from its target.

This assay addresses human plasma kallikrein (Homo sapiens (Human), UniProt P03952). The experiment in a line: Plasma kallikrein activity assay (chromogenic substrate S2302). In kind it is biochemical. As to conditions: 2 nM kallikrein, 80 μM S2302, 30° C., pH 7.8; Ki by Cheng-Prusoff equation; values given as ranges; read-out: Ki.

Chain of human plasma kallikrein (P03952 whole entry, looked up): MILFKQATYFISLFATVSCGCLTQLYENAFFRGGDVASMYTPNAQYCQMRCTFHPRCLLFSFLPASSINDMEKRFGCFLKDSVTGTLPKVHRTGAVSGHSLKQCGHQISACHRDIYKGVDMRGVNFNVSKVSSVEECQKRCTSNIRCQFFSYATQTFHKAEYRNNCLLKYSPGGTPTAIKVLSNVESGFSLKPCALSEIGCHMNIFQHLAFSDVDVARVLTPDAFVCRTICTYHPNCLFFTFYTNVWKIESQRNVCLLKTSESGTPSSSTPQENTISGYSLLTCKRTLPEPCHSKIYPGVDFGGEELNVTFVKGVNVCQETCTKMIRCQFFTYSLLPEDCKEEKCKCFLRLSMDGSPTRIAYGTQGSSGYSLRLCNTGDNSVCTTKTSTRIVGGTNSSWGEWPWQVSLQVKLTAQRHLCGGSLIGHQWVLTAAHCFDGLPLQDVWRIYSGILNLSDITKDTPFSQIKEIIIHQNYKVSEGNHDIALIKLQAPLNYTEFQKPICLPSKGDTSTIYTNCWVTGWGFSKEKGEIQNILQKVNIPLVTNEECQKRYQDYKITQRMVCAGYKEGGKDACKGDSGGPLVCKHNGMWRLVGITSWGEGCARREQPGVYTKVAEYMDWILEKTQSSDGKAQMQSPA
Chain of human plasma kallikrein (P03952 whole entry partner, looked up): as the sequence (P03952 whole entry, looked up) above

Consider `NCc1cccc(-n2nc(C(F)(F)F)cc2C(=O)Nc2cccc(C(OCC3CC3)c3ccccn3)c2)c1` (racemic) [43f, 1-(3-(aminomethyl)phenyl)-N-(3-((cyclopropylmethoxy)(pyridin-2-yl)methyl)-phenyl)-3-(trifluoromethyl)-1H-pyrazole-5-carboxamide], for which the Ki was in the range of 0.1 to 50 nM.

Regarding `NCc1cccc(-n2nc(C(F)(F)F)cc2C(=O)Nc2cccc(C(OCC3CC3)c3cccnc3)c2)c1` (racemic) [44c, 1-(3-(aminomethyl)phenyl)-N-(3-((cyclopropylmethoxy)(pyridin-3-yl)methyl)phenyl)-3-(trifluoromethyl)-1H-pyrazole-5-carboxamide], the Ki lay in the range of 0.1 to 50 nM.

As to `NCc1cccc(-n2nc(C(F)(F)F)cc2C(=O)Nc2cccc(C(O)(CCC3CC3)c3ccccc3)c2)c1` (racemic) [46g, 1-(3-(aminomethyl)phenyl)-N-(3-(3-cyclopropyl-1-hydroxy-1-phenylpropyl)phenyl)-3-(trifluoromethyl)-1H-pyrazole-5-carboxamide], the Ki lay in the range of 0.1 to 50 nM.

`NCc1cccc(-n2nc(C(F)(F)F)cc2C(=O)Nc2cccc(C(O)(CCC3CC3)c3cccnc3)c2)c1` (racemic) [47f, 1-(3-(aminomethyl)phenyl)-N-(3-(3-cyclopropyl-1-hydroxy-1-(pyridin-3-yl)propyl)phenyl)-3-(trifluoromethyl)-1H-pyrazole-5-carboxamide]: the Ki is 0.1 to 50 nM.

As for `NCc1cccc(-n2nc(C(F)(F)F)cc2C(=O)Nc2cccc(C(OCC3CC3)c3ccccn3)c2)c1` (single isomer, unassigned; (+)) [43h, (+)-1-(3-(aminomethyl)phenyl)-N-(3-((cyclopropylmethoxy)(pyridin-2-yl)methyl)-phenyl)-3-(trifluoromethyl)-1H-pyrazole-5-carboxamide], the Ki was 0.1 to 50 nM.

As to `NCc1cccc(-n2nc(C(F)(F)F)cc2C(=O)Nc2cccc(C(OCC3CC3)c3cccnc3)c2)c1` (single isomer, unassigned; (+)) [44d, (+)-1-(3-(aminomethyl)phenyl)-N-(3-((cyclopropylmethoxy)(pyridin-3-yl)methyl)phenyl)-3-(trifluoromethyl)-1H-pyrazole-5-carboxamide], the Ki is 0.1 to 50 nM.

Regarding `NCc1cccc(-n2nc(C(F)(F)F)cc2C(=O)Nc2cccc(C(O)(CCC3CC3)c3ccccc3)c2)c1` (single isomer, unassigned; (+)) [46h, (+)-1-(3-(aminomethyl)phenyl)-N-(3-(3-cyclopropyl-1-hydroxy-1-phenylpropyl)phenyl)-3-(trifluoromethyl)-1H-pyrazole-5-carboxamide], the Ki lay within 0.1 to 50 nM.

On to `NCc1cccc(-n2nc(C(F)(F)F)cc2C(=O)Nc2cccc(C(O)(CCC3CC3)c3cccnc3)c2)c1` (single isomer, unassigned; (+)) [47h, (+)-1-(3-(aminomethyl)phenyl)-N-(3-(3-cyclopropyl-1-hydroxy-1-(pyridin-3-yl)propyl)phenyl)-3-(trifluoromethyl)-1H-pyrazole-5-carboxamide], for which the Ki fell in the range of 0.1 to 50 nM.

As to `NCc1cccc(-n2nc(C(F)(F)F)cc2C(=O)Nc2cccc(C(OCC3CC3)c3cccc(N)c3)c2)c1` (single isomer, unassigned; (+)) [64b, (+)-1-(3-(aminomethyl)phenyl)-N-(3-((3-aminophenyl)(cyclopropyl-methoxy)methyl)phenyl)-3-(trifluoromethyl)-1H-pyrazole-5-carboxamide], the inhibition constant Ki was in the range of 0.1 to 50 nM.

In the case of `NCc1cccc(-n2nc(C(F)(F)F)cc2C(=O)Nc2cccc(C(OCC3CC3)c3ccccc3)c2)c1` (single isomer, unassigned; (+)) [166e, (+)-1-(3-(aminomethyl)phenyl)-N-(3-((cyclopropylmethoxy)(phenyl)methyl)phenyl)-3-(trifluoromethyl)-1H-pyrazole-5-carboxamide], the Ki fell in the range of 0.1 to 50 nM.

Consider `NCc1cccc(-n2nc(C(F)(F)F)cc2C(=O)Nc2cc(C(N)(CCC3CC3)c3ccncc3)ccc2F)c1` (single isomer, unassigned; (+)) [216d, (+)-N-(5-(1-amino-3-cyclopropyl-1-(pyridin-4-yl)propyl)-2-fluorophenyl)-1-(3-(aminomethyl)phenyl)-3-(trifluoromethyl)-1H-pyrazole-5-carboxamide], for which the inhibition constant (Ki) is 0.1 to 50 nM.

In the case of `N#Cc1ccc(C(N)(CCC2CC2)c2cccc(NC(=O)c3cc(C(F)(F)F)nn3-c3cccc(CN)c3)c2)cc1` (single isomer, unassigned; (+)) [218c, (+)-N-(3-(1-amino-1-(4-cyanophenyl)-3-cyclopropylpropyl)phenyl)-1-(3-(aminomethyl)phenyl)-3-(trifluoromethyl)-1H-pyrazole-5-carboxamide], the Ki was 0.1 to 50 nM.

For `N#Cc1cccc(C(N)(CCC2CC2)c2cccc(NC(=O)c3cc(C(F)(F)F)nn3-c3cccc(CN)c3)c2)c1` (single isomer, unassigned; (+)) [219c, (+)-N-(3-(1-amino-1-(3-cyanophenyl)-3-cyclopropylpropyl)phenyl)-1-(3-(aminomethyl)phenyl)-3-(trifluoromethyl)-1H-pyrazole-5-carboxamide], the Ki was 0.1 to 50 nM.

With `N#Cc1cccc(C(N)(CCC2CC2)c2ccc(F)c(NC(=O)c3cc(C(F)(F)F)nn3-c3cccc(CN)c3)c2)n1` (single isomer, unassigned; (+)) [220f, (+)-N-(5-(1-amino-1-(6-cyanopyridin-2-yl)-3-cyclopropylpropyl)-2-fluorophenyl)-1-(3-(aminomethyl)phenyl)-3-(trifluoromethyl)-1H-pyrazole-5-carboxamide], the Ki was in the range of 0.1 to 50 nM.

For `NCc1cccc(-n2nc(C(F)(F)F)cc2C(=O)Nc2cc(C(N)(CCC3CC3)c3ccc(C(N)=O)nc3)ccc2F)c1` (single isomer, unassigned; (+)) [221i, (+)-5-(1-amino-1-(3-(1-(3-(aminomethyl)phenyl)-3-(trifluoromethyl)-1H-pyrazole-5-carboxamido)-4-fluorophenyl)-3-cyclopropylpropyl)picolinamide], the Ki is 0.1 to 50 nM.

On to `NCc1cccc(-n2nc(C(F)(F)F)cc2C(=O)Nc2cc(C(N)(CCC3CC3)c3ccc(C(N)=O)cc3)ccc2F)c1` (single isomer, unassigned; (+)) [228a, (+)-N-(5-(1-amino-1-(4-carbamoylphenyl)-3-cyclopropylpropyl)-2-fluorophenyl)-1-(3-(aminomethyl)phenyl)-3-(trifluoromethyl)-1H-pyrazole-5-carboxamide], for which the Ki fell in the range of 0.1 to 50 nM.

In the case of `N#Cc1ccc(C(N)(CCC2CC2)c2ccc(F)c(NC(=O)c3cc(C(N)=O)nn3-c3cccc(CN)c3)c2)cc1` (single isomer, unassigned; (+)) [231d, (+)-N^5-(5-(1-amino-1-(4-cyanophenyl)-3-cyclopropylpropyl)-2-fluorophenyl)-1-(3-(aminomethyl)phenyl)-1H-pyrazole-3,5-dicarboxamide], the Ki is 0.1 to 50 nM.

As to `N#Cc1cccc(C(NCC2CC2)c2ccc(F)c(NC(=O)c3cc(C(F)(F)F)nn3-c3cccc(C(=N)N)c3)c2)c1` (single isomer, unassigned; (+)) [236h, (+)-1-(3-carbamimidoylphenyl)-N-(5-((3-cyanophenyl)(cyclopropylmethylamino)methyl)-2-fluorophenyl)-3-(trifluoromethyl)-1H-pyrazole-5-carboxamide], the Ki was 0.1 to 50 nM.

Turning to `N#Cc1cccc(C(N)(CCC2CC2)c2ccc(F)c(NC(=O)c3cc(C(F)(F)F)nn3-c3cccc(C(=N)N)c3)c2)c1` (single isomer, unassigned; (+)) [237a, (+)-N-(5-(1-amino-1-(3-cyanophenyl)-3-cyclopropylpropyl)-2-fluorophenyl)-1-(3-carbamimidoylphenyl)-3-(trifluoromethyl)-1H-pyrazole-5-carboxamide], the Ki lay in the range of 0.1 to 50 nM.

On to `N=C(N)c1cccc(-n2nc(C(F)(F)F)cc2C(=O)Nc2cc(C(N)(CCC3CC3)c3cccnc3)ccc2F)c1` (single isomer, unassigned; (+)) [238d, (+)-N-(5-(1-amino-3-cyclopropyl-1-(pyridin-3-yl)propyl)-2-fluorophenyl)-1-(3-carbamimidoylphenyl)-3-(trifluoromethyl)-1H-pyrazole-5-carboxamide], for which the Ki was in the range of 0.1 to 50 nM.

Turning to `N#Cc1ccc(C(N)(CCC2CC2)c2ccc(F)c(NC(=O)c3cc(C(F)(F)F)nn3-c3cccc(C(=N)N)c3)c2)cc1` (single isomer, unassigned; (+)) [241a, (+)-N-(5-(1-amino-1-(4-cyanophenyl)-3-cyclopropylpropyl)-2-fluorophenyl)-1-(3-carbamimidoylphenyl)-3-(trifluoromethyl)-1H-pyrazole-5-carboxamide], the Ki was 0.1 to 50 nM.

Turning to `Nc1nccc2ccc(-n3nc(C(F)(F)F)cc3C(=O)Nc3cc(C(N)(CCC4CC4)c4ccncc4)ccc3F)cc12` (single isomer, unassigned; (+)) [253e, (+)-N-(5-(1-amino-3-cyclopropyl-1-(pyridin-4-yl)propyl)-2-fluorophenyl)-1-(1-aminoisoquinolin-7-yl)-3-(trifluoromethyl)-1H-pyrazole-5-carboxamide], the Ki lay within 0.1 to 50 nM.

As to `N#Cc1ccc(C(N)(CCC2CC2)c2ccc(F)c(NC(=O)c3cc(C(F)(F)F)nn3-c3ccc4ccnc(N)c4c3)c2)cc1` (single isomer, unassigned; (+)) [254c, (+)-N-(5-(1-amino-1-(4-cyanophenyl)-3-cyclopropylpropyl)-2-fluorophenyl)-1-(1-aminoisoquinolin-7-yl)-3-(trifluoromethyl)-1H-pyrazole-5-carboxamide], the inhibition constant (Ki) lay in the range of 0.1 to 50 nM.

Consider `Nc1nccc2ccc(-n3nc(C(F)(F)F)cc3C(=O)Nc3cc(C(N)(CCC4CC4)c4ccccc4)ccc3F)cc12` (single isomer, unassigned; (+)) [255a, (+)-N-(5-(1-amino-3-cyclopropyl-1-phenylpropyl)-2-fluorophenyl)-1-(1-aminoisoquinolin-7-yl)-3-(trifluoromethyl)-1H-pyrazole-5-carboxamide], for which the Ki fell in the range of 0.1 to 50 nM.

In the case of `N#Cc1cccc(C(N)(CCC2CC2)c2ccc(F)c(NC(=O)c3cc(C(F)(F)F)nn3-c3ccc4ccnc(N)c4c3)c2)c1` (single isomer, unassigned; (+)) [256a, (+)-N-(5-(1-amino-1-(3-cyanophenyl)-3-cyclopropylpropyl)-2-fluorophenyl)-1-(1-aminoisoquinolin-7-yl)-3-(trifluoromethyl)-1H-pyrazole-5-carboxamide], the Ki lay in the range of 0.1 to 50 nM.
